This passage reports IC50 results from patent publication US10221170B2, “Difluoropyrrolidines as orexin receptor modulators” (Eolas Therapeutics, Inc., priority 2014, dated 2019).

In one test the target is T1, OX1 (Homo sapiens, UniProt O43613).
T1 construct: expressed in transfected cells; host or cells: CHO (CHO-OX1)
T1 sequence (O43613 1-425): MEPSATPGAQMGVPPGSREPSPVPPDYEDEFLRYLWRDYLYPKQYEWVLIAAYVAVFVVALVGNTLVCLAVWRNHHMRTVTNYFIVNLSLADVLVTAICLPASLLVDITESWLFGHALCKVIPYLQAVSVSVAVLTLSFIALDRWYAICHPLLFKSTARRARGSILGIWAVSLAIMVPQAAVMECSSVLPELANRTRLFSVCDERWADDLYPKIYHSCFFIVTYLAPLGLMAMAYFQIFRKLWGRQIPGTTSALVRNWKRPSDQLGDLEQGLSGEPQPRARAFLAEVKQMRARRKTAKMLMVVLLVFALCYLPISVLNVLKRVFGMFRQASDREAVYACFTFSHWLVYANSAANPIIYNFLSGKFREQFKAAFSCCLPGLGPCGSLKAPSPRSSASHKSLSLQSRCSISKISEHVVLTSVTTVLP
Briefly: Orexin receptor cell-based functional assay (FLIPR [Ca2+]i), OX1. The settings on record: CHO-OX1 cells, FLIPR calcium, EC90 of OXA. Here is the method:
(§1) Measurement of [Ca^2+]i using a FLIPR: CHO-OX1 or CHO-OX2 cells were seeded into black-walled clear-base 384-well plates (Corning, catalog #3712) at a density of 20,000 cells per well in F12-K medium supplemented with 10% FBS and then incubated in a 5% CO2, 37 C incubator overnight to reach 90% confluency. The cells were incubated with equal volume of calcium6 loading buffer (Molecular Devices, Inc.) containing 2.5 mM probenecid at 37° C. for 2 h, followed by test compounds (dose-range 0.1 nM-10 μM) for another 30 min. The plates were then placed into a FLIPR (Molecular Devices, Inc.) to monitor fluorescence (λ excitation 488 nm, λ emission 540 nm) before and after the addition of EC90 of [OXA].

A further test addresses T2, OX2 (Homo sapiens, UniProt O43614).
T2 construct: expressed in transfected cells; host or cells: CHO (CHO-OX2)
T2 sequence (O43614 1-444): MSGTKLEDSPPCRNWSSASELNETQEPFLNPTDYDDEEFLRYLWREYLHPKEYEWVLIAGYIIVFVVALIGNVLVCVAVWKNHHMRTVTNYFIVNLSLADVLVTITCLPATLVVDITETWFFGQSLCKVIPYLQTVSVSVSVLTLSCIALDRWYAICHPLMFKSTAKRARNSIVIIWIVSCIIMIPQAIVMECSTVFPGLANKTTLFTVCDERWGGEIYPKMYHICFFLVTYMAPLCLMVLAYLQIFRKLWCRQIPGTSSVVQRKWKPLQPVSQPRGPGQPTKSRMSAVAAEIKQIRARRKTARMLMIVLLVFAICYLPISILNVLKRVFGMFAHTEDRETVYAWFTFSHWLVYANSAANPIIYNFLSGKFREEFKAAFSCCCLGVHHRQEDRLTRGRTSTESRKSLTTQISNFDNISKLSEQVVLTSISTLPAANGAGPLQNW
Briefly: Orexin receptor cell-based functional assay (FLIPR [Ca2+]i), OX2. The settings on record: CHO-OX2 cells, FLIPR calcium, EC90 of OXA. As to the method:
as §1

pIC50: −log10 of the molar value.

As usually defined, the pIC50 is the IC50 on a negative log10 scale, so that one unit is a factor of ten. Regarding `N#Cc1ccc(-n2nccn2)c(C(=O)N2CCC(F)(F)[C@H]2CNc2ncc(C(F)(F)F)cn2)c1` [Example 56], the figures for the pIC50 on OX1 and on OX2 were 7.85 and less than 5.30, respectively.

Regarding `O=C(c1ncccc1-n1nccn1)N1CCC(F)(F)[C@H]1CNc1ncc(Cl)cn1` [Example 70], the figures for the pIC50 on OX1 and on OX2 were 7.70 and less than 5.30, respectively.

Turning to `O=C(c1cc(F)ccc1-n1nccn1)N1CCC(F)(F)[C@H]1CNc1ncc(Cl)cn1` [Example 64], the pIC50 at OX1 was 7.66; at OX2 it was less than 5.30.

With `Cc1c(F)ccc(C(=O)N2CCC(F)(F)[C@H]2CNc2ncc(Cl)cn2)c1-n1nccn1` [Example 69], the figures for the pIC50 at OX1 and on OX2 were 7.68 and less than 5.30, respectively.

As for `O=C(c1cc(F)ccc1-c1ncccn1)N1CCC(F)(F)[C@H]1CNc1ncc(C(F)(F)F)cn1` [Example 10], the figures for the pIC50 on OX1 and on OX2 were 8.70 and less than 5.30, respectively.

Regarding `O=C(c1c(F)cccc1-n1nccn1)N1CCC(F)(F)[C@H]1CNc1ncc(C(F)(F)F)cn1` [Example 57], the pIC50 at OX1 is 8.52; at OX2, less than 5.30.

As to `N#Cc1ccc(-n2nccn2)c(C(=O)N2CCC(F)(F)[C@H]2CNc2ncc(Cl)cn2)c1` [Example 66], the values for the pIC50 on OX1 and on OX2 were 8.22 and less than 5.30, respectively.

Regarding `O=C(c1c(-n2nccn2)ccc(F)c1F)N1CCC(F)(F)[C@H]1CNc1ncc(C(F)(F)F)cn1` [Example 52], the pIC50 was 8.22 on OX1 and less than 5.30 on OX2.

On to `Cc1nc(C(=O)N2CCC(F)(F)[C@H]2CNc2ncc(C(F)(F)F)cn2)c(-c2ccc(F)cc2)s1` [Example 1], for which the negative-log IC50 (pIC50) at OX1 was 9.00; at OX2 it was less than 5.30.

`Cc1ccc(-n2nccn2)c(C(=O)N2CCC(F)(F)[C@H]2CNc2ncc(C(F)(F)F)cn2)c1` [Example 2]: the figures for the pIC50 at OX1 and at OX2 were 8.40 and less than 5.30, respectively.

Regarding `Cc1ccc(C(=O)N2CCC(F)(F)[C@H]2CNc2ncc(Cl)cn2)c(-n2nccn2)c1F` [Example 68], the results for the pIC50 at OX1 and on OX2 were 6.98 and less than 5.30, respectively.

Take `O=C(c1cc(F)ccc1-n1nccn1)N1CCC(F)(F)[C@H]1CNc1cnc(C(F)(F)F)cn1` [Example 77]: the figures for the pIC50 on OX1 and at OX2 were 8.52 and 6.14, respectively.

On to `O=C(c1cc(Cl)ccc1-n1nccn1)N1CCC(F)(F)[C@H]1CNc1ncc(C(F)(F)F)cn1` [Example 54], for which the pIC50 on OX1 is 8.52; on OX2, less than 5.30.

On to `Cc1cccc(C(=O)N2CCC(F)(F)[C@H]2CNc2ncc(Cl)cn2)c1-n1nccn1` [Example 63], for which the negative-log IC50 (pIC50) is 8.52 on OX1 and less than 5.30 on OX2.

For the compound `Cc1ccc(C(=O)N2CCC(F)(F)[C@H]2CNc2ncc(C(F)(F)F)cn2)c(-n2nccn2)c1F` [Example 8], the values for the pIC50 on OX1 and on OX2 were 7.96 and less than 5.30, respectively.

For `Cc1cccc(C(=O)N2CCC(F)(F)[C@H]2CNc2ncc(C(F)(F)F)cn2)c1-n1nccn1` [Example 55], the pIC50 is 8.15 on OX1 and less than 5.30 at OX2.

On to `O=C(c1cccc(F)c1-n1nccn1)N1CCC(F)(F)[C@H]1CNc1ncc(C(F)(F)F)cn1` [Example 3], for which the negative-log IC50 (pIC50) on OX1 is 8.40; at OX2, less than 5.30.

`Cc1cc(C)c(-n2nccn2)c(C(=O)N2CCC(F)(F)[C@H]2CNc2ncc(C(F)(F)F)cn2)c1` [Example 60]: the negative logarithm of the IC50 (pIC50) was 7.80 at OX1 and less than 5.30 at OX2.

In the case of `O=C(c1ccc(F)c(F)c1-n1nccn1)N1CCC(F)(F)[C@H]1CNc1ncc(Cl)cn1` [Example 67], the pIC50 at OX1 was 6.00; on OX2, less than 5.30.

For `Cc1ccc(-n2nccn2)c(C(=O)N2CCC(F)(F)[C@H]2CNc2ncc(Cl)cn2)c1` [Example 65], the results for the negative-log IC50 (pIC50) at OX1 and on OX2 were 8.22 and less than 5.30, respectively.

On to `Cc1cccc(-n2nccn2)c1C(=O)N1CCC(F)(F)[C@H]1CNc1ncc(C(F)(F)F)cn1` [Example 58], for which the pIC50 on OX1 was 7.85; on OX2, less than 5.30.

Regarding `O=C(c1ccc(F)cc1-n1nccn1)N1CCC(F)(F)[C@H]1CNc1ncc(C(F)(F)F)cn1` [Example 53], the pIC50 at OX1 is 7.82; on OX2, 6.08.

Take `O=C(c1ccc(F)c(F)c1-n1nccn1)N1CCC(F)(F)[C@H]1CNc1ncc(C(F)(F)F)cn1` [Example 59]: the values for the pIC50 at OX1 and at OX2 were 6.12 and less than 5.30, respectively.

As for `Cc1c(F)ccc(C(=O)N2CCC(F)(F)[C@H]2CNc2ncc(C(F)(F)F)cn2)c1-n1nccn1` [Example 7], the pIC50 was 7.82 on OX1 and less than 5.30 at OX2.

Turning to `O=C(c1cc(F)ccc1-n1nccn1)N1CCC(F)(F)[C@H]1CNc1ncc(C(F)(F)F)cn1` [Example 5], the values for the pIC50 on OX1 and at OX2 were 8.40 and less than 5.30, respectively.

On to `Cc1ccc(-n2nccn2)c(C(=O)N2CCC(F)(F)[C@H]2COc2ccc(C(F)(F)F)cn2)c1` [Example 25], for which the pIC50 at OX1 is 6.64; at OX2 it was less than 5.30.

For the compound `O=C(c1cc(F)c(F)cc1-n1nccn1)N1CCC(F)(F)[C@H]1CNc1ncc(C(F)(F)F)cn1` [Example 51], the pIC50 on OX1 is 7.62; at OX2, 6.08.

Consider `O=C(c1cc(F)ccc1-n1nccn1)N1CCC(F)(F)[C@H]1COc1ccc(C(F)(F)F)cn1` [Example 74], for which the pIC50 at OX1 was 6.18; at OX2 it was less than 5.30.
